Experimental findings from publication PMC4077438, “Biantennary oligoglycines and glyco-oligoglycines self-associating in aqueous medium” (Beilstein Journal of Organic Chemistry, 2014) are described below.

Marks after values point to notes of the source that are not given here.

The term IC50 denotes the concentration at which inhibition is half-maximal.

One series has as its system influenza virus A/H5N2. The format is binding.
The subject of series [1] is influenza virus A/H1N1/NIB23. Description: fetuin binding inhibition test (FBI-test), influenza virus receptor binding inhibition assay.
Series [2] concerns influenza virus A/Н3N2/29/90. The description is as above.
A short description of series [3]: association in aqueous solution by dynamic light scattering (DLS). It is filed as physicochemical.
The nature of series [4]: association (tectomer formation) on mica surface by scanning force microscopy (SFM). Conditions: 0.1 mg/mL; for tectomer layer height on mica: рН 6.5, tapping mode in air. It is filed as physicochemical.
The mark [5] stands for this setting: FBI-test, value in parentheses for monomeric sialoside.

Consider `CC(=O)N[C@H]1[C@H]([C@H](O)[C@H](O)CO)O[C@@](O[C@H]2[C@@H](O)[C@@H](CO)O[C@@H](O[C@H]3[C@H](O)[C@@H](O)[C@H](O)O[C@@H]3CO)[C@@H]2O)(C(=O)O)C[C@@H]1O` [3’SL, Neu5Acα2-3Galβ1-4Glcβ], for which, in the series with influenza virus A/H5N2, inhibition was half-maximal at 150 µM (IC50) and the Relative activity is 1(150)^b.

Take `CC(=O)N[C@H]1[C@H]([C@H](O)[C@H](O)CO)O[C@](OC[C@H]2O[C@@H](O[C@H]3[C@H](O)[C@@H](NC(C)=O)C(O)O[C@@H]3CO)[C@H](O)[C@@H](O)[C@H]2O)(C(=O)O)C[C@@H]1O` (some centres unmarked) [6’SLN, Neu5Acα2-6Galβ1-4GlcNAcβ]: the IC50 in series [1] (setting [5]) came out at 150 µM. The same molecule came in with a Relative activity in series [1] (inhibition of binding of fetuin peroxidase conjugate to immobilized virus, related to monomer 6’SLN = 1) of 1.

Consider `CC(=O)N[C@H]1[C@H]([C@H](O)[C@H](O)CO)O[C@@](OCc2ccccc2)(C(=O)O)C[C@@H]1O` [Neu5AcαOBn], for which, in series [2] (setting [5]), the concentration for half-maximal inhibition (IC50) came to 150 µM. In series [2] (inhibition of binding of fetuin peroxidase conjugate to virus immobilized on plastic, related to monomer Neu5AcαOBn = 1), this molecule returned a Relative activity of 1.

On to Н-Gly4NH(СН2)10NHGly4-Н, for which the “size of associates stable in aqueous media” value in series [3] (neutral and basic media (рН 6.5 and 8.5, after NaHCO3 or Na2CO3), concentration ≤0.1 mg/mL) is given as 800–1200 nm. In addition, the “tectomer layer height on mica” value in series [4] was 3.7–4.0 nm.

Take Н-Gly4NH(СН2)10NHGly4-Н·2HCl: the “concentration at which the peptide associates in acidic solution” value in series [3] (aqueous solution, рН < 5) is at least 500 µg/mL.

Turning to Н-Gly5-NH(СН2)2NH-Gly5-Н, in series [4], the “tectomer layer height on mica” value is 3.3 nm. For the same molecule, the “planar dimensions of islet-like tectomers on mica” value in series [4] (рН 6.5, texp = 10 min, tapping mode in air) is recorded as 500–700 nm.
